The source of these data is patent US20030118671A1, “Formulation containing peanut leaf extract and its preparation” (priority 1999, published 2003).

For one assay, the system named is mice. Particulars: mouse, in vivo; cited from earlier work.
The test system of the next assay is mononuclear macrophage. In words: Carbon particulate clearance test. The assay is classed as in vivo. The following applies: mice, day 8 after seven days of drug; the values are: carbon clearance K value. From the text:
This method was used to observe the phagocytosis of mononuclear macrophage. Immunopotentiators can activate the macrophage of mice, and enhance the phagocytosis thereof. In contrast, immunosuppressants suppress these effects. Therefore, K values were increased or decreased by these two kinds of drugs, respectively
Animals and drugs were same to those used above.
Methods: After oral administration of drugs or physiological saline, or intramuscular injection of […], for seven days, 0.05 mL/10 g body weight injected through tail vein in mice on day 8. 20 μL blood was acquired from orbit vein, in 1 and 5 minutes after injection, added to 0.1%Na2CO3 respectively, and shaken up. Optical density was detected with Model-72 spectrophotometer at λ=680 nm. K values were calculated. The results were statistically analyzed and p values were assessed by t-test.

In assay [1] the test system is spleen, thymus and lymph node. In words: Immune organs weight assay. The assay is classed as in vivo, Kunming mice. The following applies: mice, day 8; leaf extract 84.8 g/1 kg orally 7 days; cortisone acetate 50 mg/1 kg i.m. 3 times. From the text: Organ weights of Spleen, thymus and lymph node in animals are increased by most of the immunopotentiating agents, but decreased by immunosuppressive agents. So the assay was used to investigate the effect of the preparation containing leaf extract of A. hypogaea on immunological function.
Animals: male and female (1:1) Kunming mice (provided by Shanghai Bioproduct Institute) were used.
Drugs: leaf extract of A. hypogaea, provided by Shanghai Zhoaxiang Chinese Medicinal Herbs Factory. Injection of cortisone acetate was provided by Shanghai Ninth Pharmaceutical Factory.
Methods: The animals were divided into groups at random after weighting. Mice were administered with 84.8 g/1 kg body weight diluted leaf extract of A. hypogaea (in terms of crude drugs) orally once per day for 7 days. 50 mg/1 kg cortisone acetate was injected intramuscularly (totally 3 times), on 2, 4, 6 days after the administration of leaf extract of A. hypogaea. 0.2 ml/10 g body weight physiological saline was administrated orally in control group, once per day for 7 days. Animals were sacrificed on the day 8 by bleeding from orbit vein. Then, spleen, thymus and lymph node (jaw, axillary fossa, groin) were taken out and weighed immediately. Each organic weight was shown as mg/10 g body weight.

The test system of assay [2] is peripheral blood of mouse. Put plainly: Peripheral blood rosette test (RFC method). The assay is classed as in vivo, mice. Particulars: 4 days after SRBC immunisation. As for the experimental part:
(§1) Peripheral blood of mouse, spleen cells rosette formation method. This method was used to observe the effect of drugs on antigen combining cell during the earlier stage of immune, which was used to screen immunopotentiator or immunosuppressant. 7.5 mg cyclophosphamide (manufactured by Shanghai Twelve Pharmaceutical Factory) per 1 kg of body weight of male mouse was injected intraperitoneally. According the recommended method for screening immune drugs disclosed by a person, each group was administrated and immured by injection sheep red blood cell (SRBC). After 4 days, peripheral blood and spleen cell suspension (approximately 9 million spleen cells per milliliter) were obtained from mice, and 1% SRBC and 0.1 mL inactivated calf blood serum were added thereto, intermixed and centrifuged under low-speed for 10 minutes. Then 1% toluidine blue was added in minor amount along the wall of the test tubes. Cell pellet was slightly dispersed by pipette. Well-mixed cell suspension was dropped to blood cell counting chamber and the number of rosette in 1 mm^3 was counted under a microscope. Once lymphocyte was surrounded by more than five SRBC, it was regarded as a rosette.

In another assay the test system is spleen cells. Put plainly: Spleen cell rosette test (RFC method). The following applies: 4 days after SRBC immunisation. The class given is in vivo, mice. How it is done: as §1

For the compound `C=CC(C)(O)CCC=C(C)C` (stereo not shown) [Linalool], in the assay on mice, the “sedative-hypnotic effect (literature)” value is reported as “positive effects on the sedative-hypnotic”.
On to `CC(=O)OCC(=O)[C@@]1(O)CC[C@H]2[C@@H]3CCC4=CC(=O)CC[C@]4(C)[C@H]3C(=O)C[C@@]21C` [cortisone, cortisone acetate], for which the carbon clearance K value with mononuclear macrophage is 0.00587 ± 0.0033. Also, in assay [1], the lymph node weight turned out to be 0.12 ± 0.05 mg/10 g body weight, the thymus weight is reported as 3.77 ± 0.83 mg/10 g body weight and the weight of spleen turned out to be 2.58 ± 1.00 mg/10 g body weight.
As to `O=P1(N(CCCl)CCCl)NCCCO1` (stereo not shown) [cyclophosphamide], the figures for the rosette percent (in assay [2]; in the assay on spleen cells) were 15.93 ± 3.35 and 20.50 ± 4.29, respectively.
